The values that follow are results of earlier work, collected in patent US20020132013A1, “Liquid cautery catheter” (priority 2001, published 2002).

For series [1], the system named is uterocomual tubal junction.
The subject of series [2] is hemorrhagic radiation induced proctitis. Particulars: topical application.

Turning to `C=C(C#N)C(=O)OC` [Methyl 2-cyanoacrylate], in series [1] (35 healthy, parous women), the complications reported result is reported as “No complications were reported”. Moreover, the “bilateral tubal occlusion, share of study participants” value in series [1] (35 healthy, parous women, hysterosalpingography 4 months after the procedure) is 88.2%. Moreover, in series [1] (participants with tubal occlusion), the “pregnancies reported in participants who demonstrated tubal occlusion” value is recorded as “no pregnancies reported”.
Regarding `C=O` [formalin], in series [2], the “efficacy in control of bleeding” value is “demonstrated the efficacy”.
